Measurements taken from PubChem BioAssay (NCI).
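Grown in 96-well plates, cells were treated for 48 hours with each compound at five concentrations. Insufficient inhibition: endpoint recorded as highest concentration tested. TGI denotes the concentration required for complete inhibition of growth.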

Experiments:
Assay in all cases: NCI anticancer screen, dose series, 48 h
A549 NSCLC = system: A549 NSCLC
ACHN renal = system: ACHN renal
CCRF-CEM leukemia = system: CCRF-CEM leukemia
HL-60(TB) leukemia = system: HL-60(TB) leukemia
KM12 colon = system: KM12 colon
MALME-3M melanoma = system: MALME-3M melanoma
NCI-H23 lung = system: NCI-H23 lung
SK-MEL-28 melanoma = system: SK-MEL-28 melanoma
TK-10 renal = system: TK-10 renal
UO-31 renal = system: UO-31 renal

Structure (SMILES)	TGI (A549 NSCLC) [µM]	TGI (ACHN renal) [µM]	TGI (CCRF-CEM leukemia) [µM]	TGI (HL-60(TB) leukemia) [µM]	TGI (KM12 colon) [µM]	TGI (MALME-3M melanoma) [µM]	TGI (NCI-H23 lung) [µM]	TGI (SK-MEL-28 melanoma) [µM]	TGI (TK-10 renal) [µM]	TGI (UO-31 renal) [µM]
COCC1OC(Sc2ccccc2)C(O)C(OC)C1OC (stereo not given)	> 100	> 100	> 100	> 100	> 100	> 100	> 100	> 100	> 100	> 100
O=C(NC(Cc1c[nH]c2ccccc12)C(=O)Nc1ccc(Br)cc1)OCc1ccccc1 (stereo not given)	> 100	60.3	36	22.2	21.7	34.1	26.5	30.5	52.8	27.4
COc1ccccc1/C(=N\OCCC(=O)O)c1cccs1	> 100	> 100	> 100	> 100	> 100	> 100	> 100	> 100	> 100	> 100
CCN(CC)CCC(=O)/C=C/c1ccccc1	39.9	26.2	> 47.2	> 100	18.5	33.1	48.1	30.8	32.3	25.8
